Converted amounts (≈) assume the structure as drawn.
What was measured:
[1] = target: Potassium voltage-gated channel subfamily A member 3 (Homo sapiens, UniProt P22001); test: Inhibition of human Kv1.3 ion channel expressed in CGE22 cells; format: cell-based
[2] = target: Potassium voltage-gated channel subfamily A member 5 (Homo sapiens, UniProt P22460); test: Inhibition of human Kv1.5 ion channel expressed in CHO K1 cells; format: cell-based
[3] = Half life in rat liver microsome; format: ADME; conditions: liver microsomes
[4] = Aqueous solubility of compound by chemiluminescent nitrogen detection analysis; format: physicochemical
[5] = Cmax in rat at 10 mg/kg, po; format: ADME, organism-based; set-up: dose 10 mg/kg, route oral; conditions: in vivo
Rattus norvegicus = test: Dose normalised AUC in rat at 10 mg/kg, po; format: ADME, organism-based; set-up: dose 10 mg/kg, route oral; conditions: in vivo

Potassium voltage-gated channel subfamily A member 3, sequence (P22001 whole entry): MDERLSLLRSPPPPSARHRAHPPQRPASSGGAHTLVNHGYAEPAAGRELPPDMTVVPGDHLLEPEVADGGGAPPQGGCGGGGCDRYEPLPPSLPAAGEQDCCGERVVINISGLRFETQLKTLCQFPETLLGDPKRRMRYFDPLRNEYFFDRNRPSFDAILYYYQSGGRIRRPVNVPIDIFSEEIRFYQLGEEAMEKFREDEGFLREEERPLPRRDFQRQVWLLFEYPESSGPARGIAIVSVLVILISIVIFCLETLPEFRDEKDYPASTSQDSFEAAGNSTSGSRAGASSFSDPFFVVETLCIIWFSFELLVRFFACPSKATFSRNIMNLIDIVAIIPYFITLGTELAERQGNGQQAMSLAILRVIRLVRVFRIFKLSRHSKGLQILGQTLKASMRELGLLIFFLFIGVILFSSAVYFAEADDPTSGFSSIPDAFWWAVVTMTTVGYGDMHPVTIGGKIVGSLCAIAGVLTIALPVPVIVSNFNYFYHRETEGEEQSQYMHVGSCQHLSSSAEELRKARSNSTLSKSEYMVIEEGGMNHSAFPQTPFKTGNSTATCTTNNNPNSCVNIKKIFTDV
Potassium voltage-gated channel subfamily A member 5, sequence (P22460 whole entry): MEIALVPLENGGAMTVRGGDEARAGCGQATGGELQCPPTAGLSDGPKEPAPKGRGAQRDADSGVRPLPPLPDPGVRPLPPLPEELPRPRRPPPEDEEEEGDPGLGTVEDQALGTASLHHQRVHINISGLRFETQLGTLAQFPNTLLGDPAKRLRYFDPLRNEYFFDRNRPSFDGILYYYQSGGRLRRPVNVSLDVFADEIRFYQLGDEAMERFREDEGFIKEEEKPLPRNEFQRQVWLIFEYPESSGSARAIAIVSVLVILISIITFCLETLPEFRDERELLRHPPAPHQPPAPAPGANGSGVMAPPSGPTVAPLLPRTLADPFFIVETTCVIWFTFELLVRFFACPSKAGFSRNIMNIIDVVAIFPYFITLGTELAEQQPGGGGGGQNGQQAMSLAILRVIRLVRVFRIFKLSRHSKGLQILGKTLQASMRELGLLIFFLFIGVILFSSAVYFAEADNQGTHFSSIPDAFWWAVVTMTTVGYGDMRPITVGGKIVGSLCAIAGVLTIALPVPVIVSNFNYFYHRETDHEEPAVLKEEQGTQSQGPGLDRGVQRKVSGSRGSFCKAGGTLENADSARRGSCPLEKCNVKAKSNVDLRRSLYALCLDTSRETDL

Structure (SMILES)	IC50 [1]	IC50 [2]	also measured
CC(C)(CNC(=O)C1CC1)CN(C1=NS(=O)(=O)c2cc(F)ccc21)c1ccccc1	280 nM	490 nM	
CC(C)(CNC(=O)C1(O)CC1)CN(C1=NS(=O)(=O)c2cc(F)ccc21)c1ccccc1	820 nM	1350 nM	
Cn1ccnc1C(=O)NCC(C)(C)CN(C1=NS(=O)(=O)c2cc(F)ccc21)c1ccccc1	550 nM	520 nM	
CC(C)(CNC(=O)c1cc[nH]c1)CN(C1=NS(=O)(=O)c2cc(F)ccc21)c1ccccc1	1150 nM	1320 nM	
O=C(NCCCN(C1=NS(=O)(=O)c2ccccc21)c1ccccc1)c1ccc(F)cc1			half-life [3]: < 15 min
CC(C)(CNC(=O)C1(C(F)(F)F)CC1)CN(C1=NS(=O)(=O)c2cc(F)ccc21)c1ccccc1	80 nM	240 nM	
CC(C)(CNC(=O)C1(C(=O)O)CC1)CN(C1=NS(=O)(=O)c2cc(F)ccc21)c1ccccc1	> 50000 nM	> 50000 nM	
CC(C)(CNC(=O)c1cnccn1)CN(C1=NS(=O)(=O)c2cc(F)ccc21)c1ccccc1	230 nM	350 nM	
CC(C)(CNC(=O)c1ccncc1O)CN(C1=NS(=O)(=O)c2cc(F)ccc21)c1ccccc1	> 50000 nM	> 50000 nM	
CC(C)(CNC(=O)C1(N)CC1)CN(C1=NS(=O)(=O)c2cc(F)ccc21)c1ccccc1	530 nM	790 nM	
CC(C)(CNC(=O)C1(C#N)CC1)CN(C1=NS(=O)(=O)c2cc(F)ccc21)c1ccccc1	350 nM	540 nM	solubility [4]: 304 µM (≈ 138 µg/mL); Cmax [5]: 900 ng/mL; AUC (Rattus norvegicus): 630 ng·kg·h/mg/mL
COc1cnccc1C(=O)NCC(C)(C)CN(C1=NS(=O)(=O)c2cc(F)ccc21)c1ccccc1	200 nM	370 nM	
CC(C)(CNC(=O)c1ncccc1O)CN(C1=NS(=O)(=O)c2cc(F)ccc21)c1ccccc1	320 nM	460 nM	
CC(C)(CNC(=O)C1CC1(F)F)CN(C1=NS(=O)(=O)c2cc(F)ccc21)c1ccccc1 (configuration not stated)	140 nM	320 nM	
CC(C)(CNC(=O)C1(C)CC1)CN(C1=NS(=O)(=O)c2cc(F)ccc21)c1ccccc1	200 nM	370 nM	
CC(C)(CNC(=O)c1cccnc1O)CN(C1=NS(=O)(=O)c2cc(F)ccc21)c1ccccc1	10100 nM	9060 nM	
CC(C)(CNC(=O)C(C)(O)C(F)(F)F)CN(C1=NS(=O)(=O)c2cc(F)ccc21)c1ccccc1 (configuration not stated)	250 nM	480 nM	solubility [4]: 52 µM (≈ 26.1 µg/mL); Cmax [5]: 2100 ng/mL; AUC (Rattus norvegicus): 1630 ng·kg·h/mg/mL
CC(C)(CNC(=O)C1(C(F)(F)F)CCC1)CN(C1=NS(=O)(=O)c2cc(F)ccc21)c1ccccc1	90 nM	320 nM	
CC(C)(CNC(=O)C1(O)CCCC1)CN(C1=NS(=O)(=O)c2cc(F)ccc21)c1ccccc1	470 nM	730 nM	
CC(C)(CNC(=O)C1(N)CCCC1)CN(C1=NS(=O)(=O)c2cc(F)ccc21)c1ccccc1	1510 nM	2640 nM	
CC(C)(CNC(=O)C1(O)CCCCC1)CN(C1=NS(=O)(=O)c2cc(F)ccc21)c1ccccc1	350 nM	450 nM	
CC(C)(CNC(=O)C1(O)CCC(F)(F)CC1)CN(C1=NS(=O)(=O)c2cc(F)ccc21)c1ccccc1	390 nM	630 nM	
CC(C)(CNC(=O)C1CCCO1)CN(C1=NS(=O)(=O)c2cc(F)ccc21)c1ccccc1 (configuration not stated)	360 nM	830 nM	
CC(C)(CNC(=O)C1CCCCO1)CN(C1=NS(=O)(=O)c2cc(F)ccc21)c1ccccc1 (configuration not stated)	640 nM	440 nM	
CC(C)(CNC(=O)CC1CCCCO1)CN(C1=NS(=O)(=O)c2cc(F)ccc21)c1ccccc1 (configuration not stated)	1350 nM	780 nM	
CC(C)(CNC(=O)C1CCOCC1(C)C)CN(C1=NS(=O)(=O)c2cc(F)ccc21)c1ccccc1 (configuration not stated)	840 nM	960 nM	
CC(C)(CNC(=O)C1(C#N)CCOCC1)CN(C1=NS(=O)(=O)c2cc(F)ccc21)c1ccccc1	330 nM	560 nM	

Structure (SMILES)	IC50 [1]	IC50 [2]	also measured
CC(C)(CNC(=O)C1(O)CCOCC1)CN(C1=NS(=O)(=O)c2cc(F)ccc21)c1ccccc1	1070 nM	1980 nM	
CN1CCCC1C(=O)NCC(C)(C)CN(C1=NS(=O)(=O)c2cc(F)ccc21)c1ccccc1 (configuration not stated)	2560 nM	1390 nM	
CC(C)(CNC(=O)c1ccc(F)cc1)CN(C1=NS(=O)(=O)c2ccccc21)c1ccccc1	160 nM		half-life [3]: < 15 min
CC(CNC(=O)c1ccc(F)cc1)CN(C1=NS(=O)(=O)c2ccccc21)c1ccccc1 (configuration not stated)	440 nM		half-life [3]: 22 min
CC(C)(CNC(=O)C1CCCCN1)CN(C1=NS(=O)(=O)c2cc(F)ccc21)c1ccccc1 (configuration not stated)	5900 nM	5970 nM	
CN1CCCCC1C(=O)NCC(C)(C)CN(C1=NS(=O)(=O)c2cc(F)ccc21)c1ccccc1 (configuration not stated)	3400 nM	2880 nM	
CC(C)(CNC(=O)N1CCOCC1)CN(C1=NS(=O)(=O)c2ccccc21)c1ccccc1	470 nM		half-life [3]: 30 min
CC(C)(CNC(=O)N1CCOCC1)CN(C1=NS(=O)(=O)c2cc(F)ccc21)c1ccccc1	340 nM		half-life [3]: 60 min
CN1CCC(C(=O)NCC(C)(C)CN(C2=NS(=O)(=O)c3cc(F)ccc32)c2ccccc2)CC1	> 50000 nM	> 50000 nM	
CN1CCCC(C(=O)NCC(C)(C)CN(C2=NS(=O)(=O)c3cc(F)ccc32)c2ccccc2)C1 (configuration not stated)	12000 nM	13700 nM	
CC(C)(CNC(=O)c1cccc(C(F)(F)F)c1)CN(C1=NS(=O)(=O)c2ccccc21)c1ccccc1	560 nM		half-life [3]: < 15 min
CC(C)(CNC(=O)c1cccc(C(F)(F)F)c1)CN(C1=NS(=O)(=O)c2cc(F)ccc21)c1ccccc1	700 nM		half-life [3]: 39 min
CC(C)(CNC(=O)C1CCCNC1)CN(C1=NS(=O)(=O)c2cc(F)ccc21)c1ccccc1 (configuration not stated)	> 50000 nM	> 50000 nM	
CC(C)(CNC(=O)C1COCCN1)CN(C1=NS(=O)(=O)c2cc(F)ccc21)c1ccccc1 (configuration not stated)	1260 nM	2000 nM	
CC(C)(CNC(=O)C1CCOCC1)CN(C1=NS(=O)(=O)c2ccccc21)c1ccccc1	700 nM		half-life [3]: 32 min
CC(C)(CNC(=O)C1CCOCC1)CN(C1=NS(=O)(=O)c2cc(F)ccc21)c1ccccc1	530 nM		half-life [3]: 26 min
CC(C)(CNC(=O)c1ccco1)CN(C1=NS(=O)(=O)c2cc(F)ccc21)c1ccccc1	200 nM	410 nM	
CC(C)(CNC(=O)c1ccoc1)CN(C1=NS(=O)(=O)c2cc(F)ccc21)c1ccccc1	150 nM	360 nM	
CC(C)(CNC(=O)N1CCCC1)CN(C1=NS(=O)(=O)c2cc(F)ccc21)c1ccccc1	300 nM	340 nM	
CC(=O)NCC(C)(C)CN(C1=NS(=O)(=O)c2cc(F)ccc21)c1ccccc1	1180 nM	1180 nM	
CC(C)(CNC(=O)c1cc2ccccc2o1)CN(C1=NS(=O)(=O)c2cc(F)ccc21)c1ccccc1	> 50000 nM	> 50000 nM	
CC(C)(CNC(=O)c1cscn1)CN(C1=NS(=O)(=O)c2cc(F)ccc21)c1ccccc1	540 nM	290 nM	
CC(C)(CNC(=O)CC(F)(F)F)CN(C1=NS(=O)(=O)c2cc(F)ccc21)c1ccccc1	150 nM	270 nM	
CNC(=O)NCC(C)(C)CN(C1=NS(=O)(=O)c2cc(F)ccc21)c1ccccc1	3080 nM	2220 nM	
CC(C)(CNC(=O)c1cocn1)CN(C1=NS(=O)(=O)c2cc(F)ccc21)c1ccccc1	750 nM	900 nM	
Cn1cnc(C(=O)NCC(C)(C)CN(C2=NS(=O)(=O)c3cc(F)ccc32)c2ccccc2)c1	13100 nM	13900 nM	
O=c1ccc2c(OCCCCOc3ccccc3)c3ccoc3cc2o1		3450 nM	

Source: ChEMBL document CHEMBL1287701, “Substituted N-{3-[(1,1-dioxido-1,2-benzothiazol-3-yl)(phenyl)amino]propyl}benzamide analogs as potent Kv1.3 ion channel blockers. Part 2” (Bioorg Med Chem Lett, 2010)
